Source: paper PMC11206678, “Peptide-Alkoxyamine Drugs: An Innovative Approach to Fight Schistosomiasis: “Digging Their Graves with Their Forks”” (Pathogens, 2024)
Structures can show the parent of a compound that is named as a salt. Square brackets hold non-standard residues; d marks the D form. Peptide text beside a SMILES is read from it. * marks the point of attachment. Boc = CC(C)(C)OC(=O)*; OBn = c1ccc(CO*)cc1

What was measured:
[1] = Homolysis kinetics of alkoxyamines by EPR (growth of nitroxide); assay type: physicochemical; details: mixture of diastereoisomers; for Homolysis rate constant kd: 0.1 mM alkoxyamine, O2 as alkyl radical scavenger; for Activation energy Ea: by Equation (2) from kd and T, A = 2.4 10^14 s^−1
Experimental: Preparation of alkoxyamines and reference samples. All reagents including anhydrous solvents used for the chemical synthesis were purchased from commercially available sources such as Merck, TCI, and Fluorochem, and were used without further purification. All air and/or water-sensitive reactions were carried out under an argon atmosphere with dry solvents using standard syringe-cannula/septa techniques. Routine monitoring of reactions was performed using Merck Silica gel 60 F254, aluminum-supported TLC plates; spots were visualized using UV light and ethanolic acidic para-anisaldehyde solution or ethanolic phosphomolybdic solution, followed by heating. Purifications by means of column chromatography were performed with Silica gel 60 (230–400 mesh). ^1H, ^13C, and ^19F NMR spectra were obtained in CDCl3, MeOD (with residual H2O), D2O, DMSO-d6, or C6D6 solutions on by using Bruker AC400 (400 MHz) and Bruker AC300 (300 MHz) spectrometers. High-resolution mass spectra (HRMS) have been performed using a SYNAPT G2 HDMS (Waters) mass spectrometer equipped with a pneumatically assisted atmospheric pressure ionization (API) source. The sample was ionized in positive electrospray mode under the following conditions: electrospray voltage: 2.8 kV; port voltage: 20 V; Nebulizing gas flow rate (nitrogen): 100 L/h or in negative electrospray mode under the following conditions: electrospray voltage: −2.27 kV; port voltage: −20 V; Nebulizing gas flow rate (nitrogen): 100 L/h. The mass spectra (MS) were obtained with a time-of-flight (TOF) analyzer. The exact mass measurements were carried out in triplicate with external calibration. Homolysis constants were measured by EPR on an EMX Bruker spectrometer from 10^−4 M samples in tertbutyl benzene or in a mixture of H2O-nPrOH (1:1; v:v).
Kinetic experiments. Kinetics of A1–A7 (Scheme 2) for series L and D are performed by monitoring the growth of nitroxide by Electron Paramagnetic Resonance (X-band EMX Bruker machine) in tert-butylbenzene and a water/n-PrOH (for a good solubility of the alkoxyamine) as solvents and using O2 as alkyl radical scavenger to suppress the back reaction (kc in Scheme 2) as already reported. Homolysis rate constants kd are given by Equation (1) ([nitroxide]∞ = [alkoxyamine]0 = 0.1 mM, see Table S1) and the subsequent activation energies Ea given by Equation (2). (1) lnnitroxide∞−nitroxidet/nitroxide∞=−kd·t, (2) Ea=−RTlnkd/A.

Vero cells = assay type: cell-based; details: 48 h
Experimental: A non-cancer line of Vero cells was used to determine the cytotoxicity of the compound against mammalian cells. They were evaluated at a final DMSO concentration of 0.5%. The culture medium was MEM (Dutscher, Bernolsheim, France) supplemented with 10% fetal bovine serum (Fisher Scientific, Illkirch, France), 1X non-essential amino acids (Fisher Scientific, Illkirch, France), 100 U/mL, 100 µg/mL penicillin/streptomycin (Fisher Scientific, Illkirch, France), and 2 mM L-glutamine (Fisher Scientific, Illkirch, France) at 37 °C in a humidified 5% CO2 atmosphere. Vero cells (100 µL of 10^5 cells/mL per well) were plated in 96-well plates for 24 h then treated with 100 µL of compound dilutions (in duplicate) during 48 h. All molecules were tested from 5 nM to 50 µM. Each well was then examined under the microscope to detect any precipitate formation before the supernatant was removed by flicking the plate. A volume of 100 µL of 0.5 mg/mL in MEM from a stock solution at 5 mg/mL of PBS-dissolved MTT (3-(4,5-dimethylthiazol-2-yl)-2,5-diphenyltetrazolium bromide, Sigma Aldrich/Merck, Darmstadt, Germany) was then added to each well [20].
After incubation for 1 h at 37 °C and 5% CO2 the supernatant was removed and 100 µL of DMSO were added. Plates were gently shaken to dissolve formazan crystals resulting from the MTT reduction by living cells and read at 570 nm with the VICTOR Nivo plate reader (Perkin Elmer, Waltham, MA, USA). CC50 values were determined using GraphPad Prism 7 software (San Diego, CA, USA).

[2] = tested on: Schistosoma mansoni adult worms; assay: Viability of Schistosoma mansoni adult worms in vitro; assay type: cell-based, Schistosoma mansoni NMRI strain; details: 37 °C; for time to kill all parasites / time to reach the death of half of the population of worms: Table S1, dose at 100 μg/ml, unit not given in Table S1 (h in Table 2); for Activity/toxicity towards schistosomes (in words): adult worms; for Activity/toxicity towards schistosomes (in words) / Time to Kill 50% of Parasites / Time to Kill 100% of Parasites: 100 μg/mL; for Time to Kill 50% of Parasites / Time to Kill 100% of Parasites: adult worms in RPMI 1640/Tween 80/DMSO, observed up to 72 h, duplicate wells
Experimental: Experiments on the viability of Schistosoma mansoni adult worms. In vitro tests were performed on Schistosoma mansoni NMRI strains. This parasite is lab maintained on Biomphalaria glabrata (BRE strain) as intermediate mollusc host and Golden Hamster (Janvier Labs, Le Genest-Saint-Isle, France) as definitive vertebrate host. Methods, for molluscs’ and hamsters’ infection and for parasite recovery, were previously described. Adult worms were recovered by hepatic perfusion technique between 42 and 47 days post hamster exposition to parasite larvae. Worms were carefully collected and disposed in 12-well Falcon® plate containing 2 mL of RPMI 1640 (supplemented with L-glutamine and Hepes 25 mM). The plates containing a minimum of 15 worms by well were then placed in an incubator chamber at 37 °C and 5% CO2. The worms sex ratio was almost balanced in each well. The drug was first dissolved in DMSO (Sigma-Aldrich) to give a 100 mg/mL mother solution. Then the stock solution was complemented with Tween 80 and RPMI to obtain the following final ratio dilution: RPMI 1640/Tween 80/DMSO and 1000/0.95/3.8, v/v/v.
All molecules were tested at a final concentration of 100 µg/mL and 10 µg/mL. A negative control consisted in adding the same RPMI 1640/Tween 80/DMSO solution, but without any drug and a positive control consisted in adding praziquantel. All molecules and control were performed in duplicates of well. The worm viability was checked after 1, 2, 3, 4, 5, 6, 7, 8, 24, 48, and 72 h after adding the molecule.

[3] = C–ON bond homolysis in water/n-PrOH v/v 1:1, EPR, T (°C): A1L 95.1, A3L 94.5, A4L 94.6, A5L 94.0, A6L 94.8, A7L 94.3, A1D 93.5, A3D 92.6, A4D 95.0, A5D 94.6

In the case of `CC(ON1C(C)(C)CCCC1(C)C)c1ccc(NC(=O)[C@@H](Cc2ccccc2)NC(=O)[C@H](NC(=O)[C@@H](Cc2ccccc2)NC(=O)OC(C)(C)C)C(C)C)cc1` (stereo partly drawn) [A3D, tert-butyl ((2R)-1-(((2R)-3-methyl-1-oxo-1-(((2R)-1-oxo-3-phenyl-1-((4-(1-((2,2,6,6-tetramethylpiperidin-1-yl)oxy)ethyl)phenyl)amino)propan-2-yl)amino)butan-2-yl)amino)-1-oxo-3-phenylpropan-2-yl)carbamate], the “Homolysis rate constant kd” value ([1]; C–ON bond homolysis in t-BuPh, EPR, T (°C): A1L 128.0, A3L 125.0, A5L 130.0, A6L 125, A7L 126.5, A1D 122.5, A3D 119.8, A5D 130) is reported as 9.6 10^−4 s^−1, the “Homolysis rate constant kd” value [1, 3] is reported as 0.45 10^−4 s^−1 and the “Activation energy Ea” value ([1]; in t-BuPh) is reported as 31.6 kcal/mol. For the same compound, the “Activation energy Ea” value ([1]; in water/n-PrOH v/v 1:1) was 31.31 kcal/mol and the CC50 (Vero cells) was greater than 50 µM.
With `CC(ON1C(C)(C)CCCC1(C)C)c1ccc(NC(=O)[C@@H](Cc2ccccc2)NC(=O)[C@H](NC(=O)[C@H](N)Cc2ccccc2)C(C)C)cc1` (stereo partly drawn) [A4D, (2R)-1-(((2R)-3-methyl-1-oxo-1-(((2R)-1-oxo-3-phenyl-1-((4-(1-((2,2,6,6-tetramethylpiperidin-1-yl)oxy)ethyl)phenyl)amino)propan-2-yl)amino)butan-2-yl)amino)-1-oxo-3-phenylpropan-2-aminium trifluoroacetate] the “Homolysis rate constant kd” value [1, 3] was 1.2 10^−4 s^−1, the “Activation energy Ea” value ([1]; in water/n-PrOH v/v 1:1) was 30.81 kcal/mol and the “time to kill all parasites” value [2] was 7. The “time to reach the death of half of the population of worms” value (“time to reach the death” below) [2] was 2, the “Activity/toxicity towards schistosomes (in words)” value [2] was “toxic to schistosomes” and the CC50 (Vero cells) was 2.6 ± 0.3 µM.
With `CC(C)[C@@H](NC(=O)[C@@H](Cc1ccccc1)NC(=O)OC(C)(C)C)C(=O)N[C@H](Cc1ccccc1)C(=O)OCc1ccccc1` [P6D, Benzyl (tert-butoxycarbonyl)-D-phenylalanyl-D-valyl-D-phenylalaninate] (Boc-[dF]-[dV]-[dF]-OBn) the “time to kill all parasites” value [2] was 24, the “time to reach the death” value [2] was 4 and the “Activity/toxicity towards schistosomes (in words)” value [2] was “unexpectedly toxic”. It also gave a CC50 (Vero cells) of 3.2 µM.
Work on `CC(C)[C@H](NC(=O)[C@H](Cc1ccccc1)NC(=O)OC(C)(C)C)C(=O)N[C@@H](Cc1ccccc1)C(=O)OCc1ccccc1` [P6L, Benzyl (tert-butoxycarbonyl)-L-phenylalanyl-L-valyl-L-phenylalaninate] (Boc-Phe-Val-Phe-OBn) yielded a CC50 (Vero cells) greater than 50 µM.
For `CC(C)[C@@H](NC(=O)[C@H](N)Cc1ccccc1)C(=O)N[C@H](Cc1ccccc1)C(=O)OCc1ccccc1` [P8D, (R)-1-(((R)-1-(((R)-1-(benzyloxy)-1-oxo-3-phenylpropan-2-yl)amino)-3-methyl-1-oxobutan-2-yl)amino)-1-oxo-3-phenylpropan-2-aminium trifluoroacetate] (H-[dF]-[dV]-[dF]-OBn), the “time to kill all parasites” value [2] was 1, the “time to reach the death” value [2] was 1 and the “Activity/toxicity towards schistosomes (in words)” value [2] was “unexpectedly toxic”. The CC50 (Vero cells) was greater than 50 µM.
With `CC(C)[C@H](NC(=O)[C@@H](N)Cc1ccccc1)C(=O)N[C@@H](Cc1ccccc1)C(=O)OCc1ccccc1` [P8L, (S)-1-(((S)-1-(((S)-1-(benzyloxy)-1-oxo-3-phenylpropan-2-yl)amino)-3-methyl-1-oxobutan-2-yl)amino)-1-oxo-3-phenylpropan-2-aminium trifluoroacetate] (H-Phe-Val-Phe-OBn) the “Time to Kill 50% of Parasites” value [2] was 7 h, the “Time to Kill 100% of Parasites” value [2] was 24 h and the “time to kill all parasites” value [2] was 24. The “time to reach the death” value [2] was 7, the “Activity/toxicity towards schistosomes (in words)” value [2] was “unexpected toxicity” and the CC50 (Vero cells) was greater than 50 µM.
In the case of `CC(C)[C@H](NC(=O)[C@H](Cc1ccccc1)NC(=O)CCC(=O)OCc1ccccc1)C(=O)N[C@@H](Cc1ccccc1)C(=O)OCc1ccccc1` [P9L, Benzyl 4-(((S)-1-(((S)-1-(((S)-1-(benzyloxy)-1-oxo-3-phenylpropan-2-yl)amino)-3-methyl-1-oxobutan-2-yl)amino)-1-oxo-3-phenylpropan-2-yl)amino)-4-oxobutanoate], the “Time to Kill 50% of Parasites” value [2] is reported as 3 h, the “Time to Kill 100% of Parasites” value [2] is reported as 5 h and the “time to kill all parasites” value [2] is reported as 5. For the same compound, the “time to reach the death” value [2] was 3, the “Activity/toxicity towards schistosomes (in words)” value [2] was “unexpected toxicity” and the CC50 (Vero cells) was greater than 50 µM.
With `CCc1ccc(NC(=O)[C@@H](Cc2ccccc2)NC(=O)[C@H](NC(=O)[C@@H](Cc2ccccc2)NC(=O)OC(C)(C)C)C(C)C)cc1` [P21D, Tert-butyl ((R)-1-(((R)-1-(((R)-1-((4-ethylphenyl)amino)-1-oxo-3-phenylpropan-2-yl)amino)-3-methyl-1-oxobutan-2-yl)amino)-1-oxo-3-phenylpropan-2-yl)carbamate] the “time to kill all parasites” value [2] was 24, the “time to reach the death” value [2] was 5 and the “Activity/toxicity towards schistosomes (in words)” value [2] was “unexpectedly toxic”. For the same compound, the CC50 (Vero cells) was greater than 50 µM.
In the case of `CCc1ccc(NC(=O)[C@@H](Cc2ccccc2)NC(=O)[C@H](NC(=O)[C@H](N)Cc2ccccc2)C(C)C)cc1` [P22D, (R)-1-(((R)-1-(((R)-1-((4-ethylphenyl)amino)-1-oxo-3-phenylpropan-2-yl)amino)-3-methyl-1-oxobutan-2-yl)amino)-1-oxo-3-phenylpropan-2-aminium trifluoroacetate], the “time to kill all parasites” value [2] is reported as 24, the “time to reach the death” value [2] is reported as 4 and the “Activity/toxicity towards schistosomes (in words)” value [2] is reported as “unexpectedly toxic”. The CC50 (Vero cells) was 11 µM.
